Data set [1] addresses T1, Human C5 (Homo sapiens, UniProt P01031).
T1 construct: purchased Complement Technology
In words: Hemolysis assay, luminescent, classical complement pathway (Example 4, Table 7). Conditions: sheep EA cells, 1.5% C5-depleted human serum, 0.5 nM human C5, luminescence readout. Type of data set: cell-based. The source says: Numbers in parenthesis following the compound number indicate alternate enantiomers (as distinguished by retention time during chromatographical separation).

Data set [2] deals with human C5 complement protein (Homo sapiens, UniProt P01031). The data set can be described thus: Surface plasmon resonance (SPR), immobilized human C5, 37° C. (Example 27, Table 31). Conditions: lowest value obtained where a range of concentrations was analyzed (Table 31). Type of data set: binding.
Data set [3] concerns the target T1, Human C5. The data set can be described thus: Red blood cell (RBC) hemolysis assay, luminescent (Example 28, Table 32). Type of data set: cell-based. Conditions: sheep EA cells, 1.5% C5-depleted human serum, 0.5 nM human C5, 1 hour at 37° C., luminescence (Table 32).
Description: Sheep red blood cells coated with rabbit anti-sheep erythrocyte antiserum (EA cells; Complement Technology, Tyler, Tex.) were used to assay compound inhibitory activity of the classical complement activation pathway. Briefly, the EA cells were washed once and resuspended in the same volume of GVB++ buffer (Complement Technology, Tyler, Tex.). 25 μL of EA cells were then distributed into each well of 384-well tissue culture plates using Apricot iPipette Pro (Apricot Designs; Covina, Calif.). Compounds were tested in 10 points of final concentrations ranging from 16.67 μM to 1.65 μM in a 6-fold titration series. Compounds were dispensed into 384-well plates from 6.7 mM and 3.35 μM DMSO working stocks using an HP Digital Dispenser (HP; Corvallis, Oreg.). The reactions also contained 1.5% (v/v) C5-depleted human serum (Complement Technology). Hemolysis was induced by addition of human C5 (Complement Technology) at a concentration of 0.5 nM and plates were incubated for 1 hour at 37° C. in a cell culture incubator. The extent of hemolysis was measured by ability of released hemoglobin to catalyze luminol in the presence of hydrogen peroxide. Luminescence was then measured using a plate reader. Luminescence measurements were used to prepare a dose-response curve. From the curve, the half maximal inhibitory concentration (IC50) for each compound was determined, where the IC50 represents the concentration of each compound needed to reduce red blood cell hemolysis by half.
A short description of data set [4]: Kinetic solubility in PBS pH 7.4, HPLC-UV (Example 21, Table 27). Type of data set: physicochemical. Conditions: phosphate buffered saline, aqueous buffer, kinetic from dmso stock, 0.5 M PBS, shaken minimum 24 h at approximately 25° C., HPLC-UV 270 nm. The method in brief: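 10 mM DMSO stock diluted into 0.05 M PBS pH 7.4 (5% DMSO final), in triplicate, shaken ≥24 h at ~25 °C, then filtered by centrifugation. Supernatant concentration by HPLC-UV at 270 nm against external DMSO standards (15.6–500.0 μM).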

Data set [5] is described as follows: Permeability assay, unidirectional transport, Papp (Example 30, Table 34). Type of data set: in vitro ADME, canine. Conditions: dog, pH 7.4; MDCK-WT cell monolayers, A-to-B, 3 μM test compound, 37° C., duplicate determinations. The protocol:
Permeability assays were carried out to provide a preliminary indication of suitability for oral dosing and compound permeability across the blood brain barrier. Unidirectional and bidirectional compound transport across Madin Darby canine kidney (MDCK) cell monolayers was assessed. For unidirectional transport assessment, transport across MDCK wild type (MDCK-WT) cell monolayers was assessed. For bidirectional transport, transport across MDCK-MDR1 cell monolayers was assessed. MDCK-MDR1 cells express the MDR1 gene encoding the P-glycoprotein (P-gp) efflux protein.
MDCK-WT and MDCK-MDR1 cells were plated onto permeable polycarbonate supports in 12-well Costar transwell plates and allowed to grow and differentiate for 3 days. After 3 days in culture, the culture medium (DMEM supplemented with 10% FBS) was removed from both sides of the transwell inserts and cells were rinsed with warm HBSS. After the rinse step, the chambers were filled with warm transport buffer (HBSS containing 10 mM HEPES, 0.25% BSA, pH 7.4) and the plates were pre-incubated at 37° C. for 30 minutes prior to TEER (Trans Epithelial Electric Resistance) measurements.
The buffer in the donor chamber (apical side for A-to-B assay, basolateral side for B-to-A assay) was removed and replaced with the working solution (3 μM test compound and 10 μM for control compounds in transport buffer). The plates were then placed at 37° C. under light agitation. At designated time points (30, 60 and 90 min), an aliquot of transport buffer from the receiver chamber was removed and replenished with fresh transport buffer. Samples were quenched with ice-cold ACN containing internal standard and then centrifuged to pellet protein. Resulting supernatants were further diluted with 50/50 ACN/H2O (Atenolol diluted in just water) and submitted for LC-MS/MS analysis. Apparent permeability (Pap) values were calculated from duplicate determinations. Atenolol and propranolol were tested as low and […] permeability references.
Papp values indicate extent of compound permeation across monolayers.

In brackets after ≈: the same amount, converted by molar mass. Some results are limits rather than exact numbers.

T1 sequence (P01031 19-1676): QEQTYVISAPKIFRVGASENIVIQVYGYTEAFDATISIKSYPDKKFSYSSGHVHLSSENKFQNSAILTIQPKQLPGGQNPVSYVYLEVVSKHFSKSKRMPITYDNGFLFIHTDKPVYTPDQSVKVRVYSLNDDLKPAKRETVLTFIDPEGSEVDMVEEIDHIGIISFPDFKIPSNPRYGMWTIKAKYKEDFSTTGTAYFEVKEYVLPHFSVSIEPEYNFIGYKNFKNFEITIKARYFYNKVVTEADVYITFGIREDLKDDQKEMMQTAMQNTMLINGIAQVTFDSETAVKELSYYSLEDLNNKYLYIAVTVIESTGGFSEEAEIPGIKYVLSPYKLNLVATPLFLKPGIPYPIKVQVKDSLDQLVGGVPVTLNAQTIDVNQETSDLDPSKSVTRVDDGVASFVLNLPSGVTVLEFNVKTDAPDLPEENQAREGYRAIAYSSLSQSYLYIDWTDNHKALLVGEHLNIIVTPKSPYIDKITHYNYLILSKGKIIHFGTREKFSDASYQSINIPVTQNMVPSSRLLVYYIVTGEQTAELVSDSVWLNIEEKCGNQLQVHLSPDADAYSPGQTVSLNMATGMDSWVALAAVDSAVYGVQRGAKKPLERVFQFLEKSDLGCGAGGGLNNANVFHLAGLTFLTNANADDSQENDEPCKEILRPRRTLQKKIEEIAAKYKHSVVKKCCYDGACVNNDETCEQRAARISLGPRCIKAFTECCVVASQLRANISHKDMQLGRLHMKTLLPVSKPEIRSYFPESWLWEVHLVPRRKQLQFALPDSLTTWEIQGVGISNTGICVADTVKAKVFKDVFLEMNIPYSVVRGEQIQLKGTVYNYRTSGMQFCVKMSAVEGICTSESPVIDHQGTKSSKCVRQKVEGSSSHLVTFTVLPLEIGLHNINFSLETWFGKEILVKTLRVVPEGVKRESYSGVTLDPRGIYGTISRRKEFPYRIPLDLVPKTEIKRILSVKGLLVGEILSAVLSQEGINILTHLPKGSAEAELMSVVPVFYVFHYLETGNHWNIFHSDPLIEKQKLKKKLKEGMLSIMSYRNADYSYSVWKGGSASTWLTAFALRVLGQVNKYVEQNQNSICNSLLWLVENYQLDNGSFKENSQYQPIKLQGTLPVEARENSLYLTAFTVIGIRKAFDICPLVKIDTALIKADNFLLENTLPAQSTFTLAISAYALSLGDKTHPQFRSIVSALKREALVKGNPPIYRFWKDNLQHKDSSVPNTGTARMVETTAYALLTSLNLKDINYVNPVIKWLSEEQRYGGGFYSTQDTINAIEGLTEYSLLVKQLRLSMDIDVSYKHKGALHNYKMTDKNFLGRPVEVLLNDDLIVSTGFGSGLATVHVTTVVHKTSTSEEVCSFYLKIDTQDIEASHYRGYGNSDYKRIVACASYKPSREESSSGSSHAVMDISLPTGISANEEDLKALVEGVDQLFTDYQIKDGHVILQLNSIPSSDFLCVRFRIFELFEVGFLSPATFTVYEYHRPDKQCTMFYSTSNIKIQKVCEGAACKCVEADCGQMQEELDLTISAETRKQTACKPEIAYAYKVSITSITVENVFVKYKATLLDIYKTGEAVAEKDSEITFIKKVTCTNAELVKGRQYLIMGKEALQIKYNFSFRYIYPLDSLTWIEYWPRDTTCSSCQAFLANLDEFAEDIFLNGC
human C5 complement protein, sequence (P01031 19-1676): as above

As for `CCCCCOc1cc(NC(=O)N(CCC(=O)N(C)C)Cc2cc(F)ccc2OC)ccc1OC` [SM0216], half-maximal inhibition in data set [1] (IC50) required 199 nM.
Take `CCCCCOc1cc(N2CC[C@H](C)N(Cc3cccc4c3c(C)cn4CC(=O)N3CCCOCC3)C2=O)ccc1OC` [SC0103]: the Kd in data set [2] stood at 0.08 nM. Also, the IC50 in data set [3] was found to be 1 nM. In addition, in data set [4], the kinetic solubility was 24 µM (≈ 14.2 µg/mL).
The matching figures for `CCCCCOc1cc(N2CC[C@H](C)N(Cc3cccc4c3c(C)cn4CC(=O)N(C)C)C2=O)ccc1OC` [SC0107]: 0.36 nM, 1.1 nM and 52 µM (≈ 27.8 µg/mL).
The matching figures for `CCCCCOc1cc(N2CC[C@H](C)N(Cc3ccnc4c3c(Cl)cn4CC(=O)N3CCC3)C2=O)ccc1OC` [SC0122]: 0.22 nM, 1.5 nM and 81 µM (≈ 46 µg/mL).
In data set [2], `CCCCCOc1cc(N2CC(CO)CN(Cc3ccc(CC(=O)N4CCOCC4)cc3OC)C2=O)ccc1OC` (stereo not shown) [SC0183] registered a Kd of 3.88 nM. The same molecule returned an IC50 in data set [3] of 5.3 nM. The molecule further yielded a kinetic solubility in data set [4] of over 500 µM.
As for `CCCCCOc1cc(N2CC(CO)CN(Cc3ccc(CC(=O)N4CCNC(=O)C4)cc3OC)C2=O)ccc1OC` (stereo not shown) [SC0178], in data set [2], the affinity, expressed as Kd, was 1.07 nM. For the same molecule, the IC50 in data set [3] was determined as 4.8 nM. This molecule registered a solubility (kinetic) in data set [4] of 443 µM (≈ 258 µg/mL).
In data set [1], `CCCCCOc1cc(NC(=O)N(CC(=O)N(C)C)Cc2cc(F)ccc2OC)ccc1OC` [SM0211] returned an IC50 of 1910 nM.
Same read-out and setting: for `CCCCCOc1cc(NC(=O)NCc2ccc(Br)cc2OC)ccc1OC` [SM0219] the value was 239 nM; for `CCCCCOc1cc(NC(=O)N2CCC[C@@H]2c2ccccc2Cl)c(CNC(=O)/C=C/CN(C)C)cc1OC` [SM0202], 240 nM; for `CCCCCOc1cc(NC(=O)N(CC(N)=O)Cc2cc(F)ccc2OC)ccc1OC` [SM0213], 903 nM.
Turning to `CCCCCOc1cc(NC(=O)N(CC(=O)NC2CCN(C(C)=O)CC2)Cc2cc(F)ccc2OC)ccc1OC` [SM0209], the IC50 in data set [1] was found to be 1140 nM.
Still for that read-out and setting: for `CCCCCOc1cc(NC(=O)N(CC(=O)NC)Cc2cc(F)ccc2OC)ccc1OC` [SM0212] the value was 867 nM.
In turn, `COc1cc(CC(N)=O)ccc1CN1CC(C)CN(c2ccc(OC)c(OCCCC3CC3)c2)C1=O` (stereo not shown) [SC0179] had a Kd in data set [2] of 0.88 nM. For the same molecule, inhibition in data set [3] was half-maximal at 4.9 nM (IC50).
`CCCCCOc1cc(NC(=O)N(CC(=O)NCCN2CCCC2)Cc2cc(F)ccc2OC)ccc1OC` [SM0206]: inhibition in data set [1] was half-maximal at 2060 nM (IC50).
Consider `CCCCCOc1cc(N2CC[C@H](C)N(Cc3cccc4[nH]cc(C)c34)C2=O)ccc1OC` [SC0148], for which the Kd in data set [2] turned out to be 0.92 nM. In data set [3], this molecule displayed an IC50 of 2.2 nM. Besides, in data set [4], the solubility (kinetic) was under 10 µM.
The molecule `C#CC(=O)NCc1cc(OC)c(OCCCCC)cc1NC(=O)N1CCC[C@@H]1c1ccccc1Cl` [SM0201] came in with an IC50 in data set [1] of 89.5 nM.
As to `CCCCCOc1cc(NC(=O)N(CCOCc2cn(C)cn2)Cc2cc(F)ccc2OC)ccc1OC` [SM0217], the IC50 in data set [1] stood at 210 nM.
Regarding `CCCCCOc1cc(N2CC(C)CN(Cc3ccc(CNC(=O)c4cocn4)cc3OC)C2=O)ccc1OC` (stereo not shown) [SC0170], the Kd in data set [2] is 0.77 nM. The molecule further had an IC50 in data set [3] of 3.7 nM.
`COc1ccc(N2CC[C@H](C)N(Cc3cccc4c3c(Cl)cn4CC(=O)N(C)C)C2=O)cc1OCCCC1CC1` [SC0116]: the Kd in data set [2] was determined as 0.02 nM. 1.4 nM corresponded to half-maximal inhibition in data set [3] (IC50). Moreover, the solubility (kinetic) in data set [4] is under 10 µM.
The matching figures for `COc1ccc(N2CC[C@H](C)N(Cc3cccc4c3c(Cl)cn4CC(=O)N3CCOCC3)C2=O)cc1OCCCC1CC1` [SC0115]: 0.18 nM, 1.4 nM and under 10 µM.
For `CCCCCOc1cc(N2CC[C@H](C)N(Cc3cccc4c3c(Cl)cn4CC(=O)N3CCOC(CN(C)C)C3)C2=O)ccc1OC` (stereo partly shown) [SC0154], in that order: 0.04 nM, 2.3 nM and 315 µM (≈ 206 µg/mL).
In turn, `CCCCCOc1cc(N2CC[C@H](C)N(Cc3ccnc4c3c(Cl)cn4CC(=O)N3CCOC3)C2=O)ccc1OC` [SC0113] had a Kd in data set [2] of 0.02 nM. For the same molecule, the midpoint of inhibition in data set [3], the IC50, lay at 1.3 nM. In data set [5], the Papp A→B at 3 μM was 17.9 ×10⁻⁶ cm/s.
`COc1ccc(N2CC[C@H](C)N(Cc3cccc4c3ccn4CC(=O)N(C)C)C2=O)cc1OCCCC1CC1` [SC0174]: in data set [2], the Kd was found to be 0.78 nM. In data set [3], this molecule gave an IC50 of 4.3 nM. This molecule came in with a solubility (kinetic) in data set [4] of 40 µM (≈ 21.3 µg/mL).
On to `CCCCCOc1cc(N2CC(C)CN(Cc3ccc(CNC(=O)c4cnco4)cc3OC)C2=O)ccc1OC` (stereo not shown) [SC0159], for which binding in data set [2] was characterised by a dissociation constant (Kd) of 0.4 nM. In addition, the IC50 in data set [3] came to 2.7 nM.
In the case of `CCCCCOc1cc(NC(=O)N2CCC[C@@H]2c2ccccc2Cl)c(CNC(=O)CCl)cc1OC` [SM0203], the IC50 in data set [1] was 255 nM.
The same measure, in the same setting: for `CCCCCOc1cc(NC(=O)N(CC(=O)NCC2CC(=O)N(C)C2)Cc2cc(F)ccc2OC)ccc1OC` (stereo not shown) [SM0208] the value was 914 nM.
`CCCCCOc1cc(N2CC(CO)CN(Cc3ccc(CC(=O)N(C)C)cc3OC)C2=O)ccc1OC` (stereo not shown) [SC0172] gave a Kd in data set [2] of 2.25 nM. For the same molecule, it took 3.8 nM to reach half-maximal inhibition in data set [3] (IC50). For the same molecule, in data set [4], the kinetic solubility was determined as 490 µM (≈ 259 µg/mL).
For `CCCCCOc1cc(N2CC(C)CN(Cc3ccc(CC(=O)N4CCNC(=O)C4)cc3OC)C2=O)ccc1OC` (stereo not shown) [SC0163], in that order: 0.89 nM, 2.8 nM and 450 µM (≈ 255 µg/mL).
Molecule `CCCCCOc1cc(N2CC(CO)CN(Cc3ccc(CNC(=O)c4cocn4)cc3OC)C2=O)ccc1OC` (stereo not shown) [SC0104] displayed a Kd in data set [2] of 0.89 nM. This molecule showed an IC50 in data set [3] of 1.1 nM. In data set [4], this molecule returned a solubility (kinetic) of under 10 µM.
For `CCCCCOc1cc(N2CC[C@H](C)N(Cc3cccc4c3c(C)cn4CC(=O)N(C)C3CCN(CC)C3)C2=O)ccc1OC` (stereo partly shown) [SC0105], in that order: 0.08 nM, 1.1 nM and 399 µM (≈ 247 µg/mL).
The molecule `CCCCCOc1cc(N2CC(CO)CN(Cc3ccc(CC(=O)N4CCCOCC4)cc3OC)C2=O)ccc1OC` (stereo not shown) [SC0190] showed a Kd in data set [2] of 2.8 nM. The molecule further returned an IC50 in data set [3] of 7.1 nM.
`COc1ccc(NC(=O)N[C@H]2COC(C)(C)Oc3c(OC)cccc32)cc1OCCCC(C)C` [SM0218]: half-maximal inhibition in data set [1] (IC50) was put at 48.6 nM.
Consider `CCCCCOc1cc(N2CC(CO)CN(Cc3ccc(CC(=O)N4CCCC4)cc3OC)C2=O)ccc1OC` (stereo not shown) [SC0184], for which, in data set [2], the affinity, expressed as Kd, was 2.94 nM. In data set [3], this molecule showed an IC50 of 5.7 nM. In data set [4], the solubility (kinetic) stood at 411 µM (≈ 228 µg/mL).
The matching figures for `COc1ccc(N2CC[C@H](C)N(Cc3ccnc4c3c(Cl)cn4CC(=O)N(C)C)C2=O)cc1OCCCC1CC1` [SC0119]: 1.21 nM, 1.4 nM and 65 µM (≈ 36.9 µg/mL).
As to `CCCCCOc1cc(NC(=O)N(CC(=O)NCc2cccnc2)Cc2cc(F)ccc2OC)ccc1OC` [SM0205], in data set [1], the midpoint of inhibition, the IC50, lay at 1290 nM.
Still for that read-out and setting: for `CCCCCOc1cc(NC(=O)N(CCC(=O)O)Cc2cc(F)ccc2OC)ccc1OC` [SM0214] the value was 175 nM.
In data set [2], `CCCCCOc1cc(N2CC[C@H](C)N(Cc3cccc4c3c(Cl)cn4CC(=O)N3CCCOCC3)C2=O)ccc1OC` [SC0128] came in with a Kd of 0.02 nM. In data set [3], 1.7 nM corresponded to half-maximal inhibition (IC50). The solubility (kinetic) in data set [4] was under 10 µM.
For `CCCCCOc1cc(N2CC[C@H](C)N(Cc3cccc4c3ccn4CC(=O)N(C)CC#N)C2=O)ccc1OC` [SC0168], in data set [2], binding was characterised by a dissociation constant (Kd) of 0.79 nM. In data set [3], the IC50 turned out to be 3.3 nM.
In data set [2], `CCCCCOc1cc(N2CC[C@H](C)N(Cc3ccnc4c3c(Cl)cn4CC(=O)N3CCNC(=O)C3)C2=O)ccc1OC` [SC0106] gave a dissociation constant (Kd) of 0.08 nM. In data set [3], the IC50 came to 1.1 nM. The molecule also came in with a solubility (kinetic) in data set [4] of 119 µM (≈ 72.7 µg/mL).

The term IC50 denotes the point on the concentration scale where inhibition reaches its midpoint. As usually defined, the Kd is the equilibrium constant for the complex coming apart. A higher Kd goes with a looser complex. As usually defined, the solubility (kinetic) is the concentration staying in solution when a stock, usually in DMSO, is diluted into the medium. As usually defined, the Papp A→B is how fast a substance crosses the layer from the apical side. A low value points to slow passage.

(Values after US20230115176A1 (Ra Pharmaceuticals, Inc., priority 2019, published 2023).)
